Measured values published in PMC6458850, “CXXC5 mediates growth plate senescence and is a target for enhancement of longitudinal bone growth” (Life Science Alliance, 2019).

Biological target: T1, CXXC5–DVL interaction (Homo sapiens, UniProt O14640)
T1 sequence (O14640 251-340 limits assumed): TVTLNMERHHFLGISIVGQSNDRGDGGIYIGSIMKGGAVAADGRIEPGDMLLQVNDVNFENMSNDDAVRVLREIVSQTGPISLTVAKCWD
Assay: In vitro CXXC5–DVL binding assay (FITC-tagged PTD-DBMP on DVL PDZ domain)
Settings: compound 30 μM; fluorescent intensity normalized to DMSO-treated control
Experimental: After the addition of 10 μM FITC-tagged PTD-DBMP to each well, each compound in the chemical library or control (DMSO) was treated to the well at a final concentration of 30 μM. The fluorescence intensity was measured using a Fluorstar Optima microplate reader (BGM Lab Technologies, Ortenberg, Germany). The binding values were calculated as a percent ratio of the fluorescent intensity normalized to the DMSO-treated control.

- CXXC5-DVL interaction (%): 7.65%
SMILES: O=C1Nc2ccccc2/C1=C1/Nc2ccccc2/C1=N\O [Compound 12, indirubin-3′-oxime, reference compound]
